The results in this text go back to patent US11725012B2, “Imidazo[1,5-a]pyrazine derivatives as PI3K δ inhibitors” (priority 2016, dated 2023).

Read-outs that look alike come from different tables or passages of the source.

In data set [1] the target is recombinant PI3K (p110δ/p85α) (Homo sapiens, UniProt O00329). In words: PI3Kδ ADP-Glo kinase assay. Format: biochemical. The gist of the method: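 ADP-Glo luminescence with recombinant p110δ/p85α and lipid kinase substrate. Compound serial dilutions preincubated 0.5 hr, ATP added, reaction 1 hr at room temperature, then ATP depletion and detection steps. IC50 from a four-parameter logistic fit of residual activity.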
Chain of recombinant PI3K (p110δ/p85α) (O00329 whole entry): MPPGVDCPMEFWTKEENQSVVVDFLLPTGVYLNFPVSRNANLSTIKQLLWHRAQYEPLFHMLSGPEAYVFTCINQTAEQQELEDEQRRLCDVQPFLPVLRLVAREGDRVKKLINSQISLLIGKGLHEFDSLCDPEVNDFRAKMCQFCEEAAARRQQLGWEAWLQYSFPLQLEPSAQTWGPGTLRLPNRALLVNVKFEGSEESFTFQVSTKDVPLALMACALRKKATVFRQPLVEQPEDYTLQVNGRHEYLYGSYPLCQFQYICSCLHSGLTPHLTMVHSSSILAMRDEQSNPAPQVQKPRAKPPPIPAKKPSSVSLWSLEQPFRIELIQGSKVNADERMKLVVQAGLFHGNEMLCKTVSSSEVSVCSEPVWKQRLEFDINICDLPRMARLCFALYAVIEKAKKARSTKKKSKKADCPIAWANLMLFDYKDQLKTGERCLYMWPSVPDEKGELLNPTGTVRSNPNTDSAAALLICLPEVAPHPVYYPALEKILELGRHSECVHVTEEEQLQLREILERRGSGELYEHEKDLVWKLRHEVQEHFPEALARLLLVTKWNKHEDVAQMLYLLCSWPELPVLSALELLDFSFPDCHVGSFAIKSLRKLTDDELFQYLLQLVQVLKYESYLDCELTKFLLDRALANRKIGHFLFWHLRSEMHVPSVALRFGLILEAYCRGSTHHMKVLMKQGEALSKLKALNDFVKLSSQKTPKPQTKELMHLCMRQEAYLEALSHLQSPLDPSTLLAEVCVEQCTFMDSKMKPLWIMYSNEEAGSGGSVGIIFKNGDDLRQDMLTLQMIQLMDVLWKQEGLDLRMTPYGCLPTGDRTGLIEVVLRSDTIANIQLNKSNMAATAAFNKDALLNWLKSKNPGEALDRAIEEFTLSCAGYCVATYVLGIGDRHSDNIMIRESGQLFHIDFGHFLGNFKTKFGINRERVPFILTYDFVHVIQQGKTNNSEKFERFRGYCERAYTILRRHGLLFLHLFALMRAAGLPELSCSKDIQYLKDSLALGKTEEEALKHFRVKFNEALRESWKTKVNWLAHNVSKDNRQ
Chain of recombinant PI3K (p110δ/p85α) (P27986 whole entry partner): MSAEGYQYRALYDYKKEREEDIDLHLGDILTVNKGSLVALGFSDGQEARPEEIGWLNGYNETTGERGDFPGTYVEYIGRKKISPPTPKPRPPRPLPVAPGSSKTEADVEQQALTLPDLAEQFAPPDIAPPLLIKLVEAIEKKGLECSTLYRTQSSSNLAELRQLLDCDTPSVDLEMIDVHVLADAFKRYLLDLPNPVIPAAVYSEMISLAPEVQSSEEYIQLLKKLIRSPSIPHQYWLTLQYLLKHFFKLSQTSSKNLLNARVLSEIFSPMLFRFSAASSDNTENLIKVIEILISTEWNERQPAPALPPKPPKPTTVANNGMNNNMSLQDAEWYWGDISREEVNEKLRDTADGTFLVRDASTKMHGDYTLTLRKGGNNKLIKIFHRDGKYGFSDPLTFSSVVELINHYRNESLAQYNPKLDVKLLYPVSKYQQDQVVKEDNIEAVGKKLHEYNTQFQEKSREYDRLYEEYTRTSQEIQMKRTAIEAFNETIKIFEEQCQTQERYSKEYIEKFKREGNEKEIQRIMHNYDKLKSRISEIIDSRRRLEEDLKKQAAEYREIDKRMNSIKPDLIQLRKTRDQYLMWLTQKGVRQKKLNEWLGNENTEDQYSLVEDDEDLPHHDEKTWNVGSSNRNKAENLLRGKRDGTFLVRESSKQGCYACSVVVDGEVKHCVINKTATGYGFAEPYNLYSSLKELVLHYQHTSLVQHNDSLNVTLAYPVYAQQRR
Background: ADP-Glo first removes unused ATP, then detects ADP through luciferase.

Data set [2] deals with recombinant PI3K (p110α/p85α) (Homo sapiens, UniProt P42336). The data set can be described thus: PI3Kα ADP-Glo kinase assay. Format: biochemical.
Chain of recombinant PI3K (p110α/p85α) (P42336 whole entry): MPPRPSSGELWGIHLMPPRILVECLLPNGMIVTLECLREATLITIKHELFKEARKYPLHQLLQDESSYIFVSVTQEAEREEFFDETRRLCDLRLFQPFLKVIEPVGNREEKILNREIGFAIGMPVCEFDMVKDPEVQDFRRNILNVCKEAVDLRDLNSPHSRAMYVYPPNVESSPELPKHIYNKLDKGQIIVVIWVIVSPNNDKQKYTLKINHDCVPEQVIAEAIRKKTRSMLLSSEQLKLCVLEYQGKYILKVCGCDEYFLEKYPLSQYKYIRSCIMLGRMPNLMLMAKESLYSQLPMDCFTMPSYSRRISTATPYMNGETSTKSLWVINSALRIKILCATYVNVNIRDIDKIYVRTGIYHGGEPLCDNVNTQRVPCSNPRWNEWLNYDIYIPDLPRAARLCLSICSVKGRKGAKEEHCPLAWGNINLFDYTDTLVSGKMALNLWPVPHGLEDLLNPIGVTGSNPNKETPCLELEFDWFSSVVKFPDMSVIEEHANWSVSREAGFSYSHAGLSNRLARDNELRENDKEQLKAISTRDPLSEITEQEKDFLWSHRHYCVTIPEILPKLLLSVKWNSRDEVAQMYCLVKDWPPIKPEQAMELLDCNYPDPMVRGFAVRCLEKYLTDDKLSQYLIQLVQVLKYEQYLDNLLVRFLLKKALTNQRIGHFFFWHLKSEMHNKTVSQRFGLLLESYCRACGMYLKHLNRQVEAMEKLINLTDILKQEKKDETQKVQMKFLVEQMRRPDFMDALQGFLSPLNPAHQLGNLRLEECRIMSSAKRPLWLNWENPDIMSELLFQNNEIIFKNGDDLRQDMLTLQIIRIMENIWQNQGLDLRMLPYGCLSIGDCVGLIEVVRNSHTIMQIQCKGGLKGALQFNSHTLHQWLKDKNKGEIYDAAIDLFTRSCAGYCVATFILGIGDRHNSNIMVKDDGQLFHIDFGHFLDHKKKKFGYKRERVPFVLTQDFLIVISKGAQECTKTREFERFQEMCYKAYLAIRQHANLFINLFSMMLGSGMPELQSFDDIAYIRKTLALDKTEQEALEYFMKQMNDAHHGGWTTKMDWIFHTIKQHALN
Chain of recombinant PI3K (p110α/p85α) (P27986 whole entry partner): as the sequence (P27986 whole entry partner) above
For the next data set, the target named is PI3K (p110β/p85α) (Homo sapiens, UniProt P42338). The data set can be described thus: PI3Kβ ADP-Glo kinase assay. Format: biochemical.
Chain of PI3K (p110β/p85α) (P42338 whole entry): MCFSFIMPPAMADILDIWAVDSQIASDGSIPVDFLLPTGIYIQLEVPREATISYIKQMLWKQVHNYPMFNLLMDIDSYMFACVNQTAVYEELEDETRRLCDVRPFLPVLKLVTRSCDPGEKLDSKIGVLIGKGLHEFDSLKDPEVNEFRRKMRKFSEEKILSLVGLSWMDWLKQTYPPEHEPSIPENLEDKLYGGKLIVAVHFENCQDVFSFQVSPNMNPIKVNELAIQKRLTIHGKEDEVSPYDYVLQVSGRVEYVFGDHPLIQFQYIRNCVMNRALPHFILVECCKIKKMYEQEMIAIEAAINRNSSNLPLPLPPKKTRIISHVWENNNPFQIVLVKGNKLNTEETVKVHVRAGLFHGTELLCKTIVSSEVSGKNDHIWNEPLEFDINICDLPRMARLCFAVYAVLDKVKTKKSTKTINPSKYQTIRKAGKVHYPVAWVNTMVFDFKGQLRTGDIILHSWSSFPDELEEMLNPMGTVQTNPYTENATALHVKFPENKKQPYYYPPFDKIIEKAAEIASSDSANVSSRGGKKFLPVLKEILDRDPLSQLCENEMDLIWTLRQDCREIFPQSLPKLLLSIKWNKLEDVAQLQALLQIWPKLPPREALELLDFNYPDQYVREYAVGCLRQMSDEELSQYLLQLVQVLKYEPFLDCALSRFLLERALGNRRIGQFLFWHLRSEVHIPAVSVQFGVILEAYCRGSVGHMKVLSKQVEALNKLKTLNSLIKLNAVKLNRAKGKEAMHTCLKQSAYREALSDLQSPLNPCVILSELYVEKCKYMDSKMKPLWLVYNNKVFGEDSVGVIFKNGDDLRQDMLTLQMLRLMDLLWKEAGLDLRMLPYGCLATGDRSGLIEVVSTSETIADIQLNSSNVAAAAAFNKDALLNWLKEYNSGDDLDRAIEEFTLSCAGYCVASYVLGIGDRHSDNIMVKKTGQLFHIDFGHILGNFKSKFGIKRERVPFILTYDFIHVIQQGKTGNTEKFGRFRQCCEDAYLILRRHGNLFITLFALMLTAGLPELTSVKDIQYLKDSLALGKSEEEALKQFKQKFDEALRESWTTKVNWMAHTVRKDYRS
Chain of PI3K (p110β/p85α) (P27986 whole entry partner): as the sequence (P27986 whole entry partner) above
In a further data set the target is PI3K (p110γ) (Homo sapiens, UniProt P48736). The data set can be described thus: PI3Kγ ADP-Glo kinase assay. Format: biochemical.
Chain of PI3K (p110γ) (P48736 whole entry): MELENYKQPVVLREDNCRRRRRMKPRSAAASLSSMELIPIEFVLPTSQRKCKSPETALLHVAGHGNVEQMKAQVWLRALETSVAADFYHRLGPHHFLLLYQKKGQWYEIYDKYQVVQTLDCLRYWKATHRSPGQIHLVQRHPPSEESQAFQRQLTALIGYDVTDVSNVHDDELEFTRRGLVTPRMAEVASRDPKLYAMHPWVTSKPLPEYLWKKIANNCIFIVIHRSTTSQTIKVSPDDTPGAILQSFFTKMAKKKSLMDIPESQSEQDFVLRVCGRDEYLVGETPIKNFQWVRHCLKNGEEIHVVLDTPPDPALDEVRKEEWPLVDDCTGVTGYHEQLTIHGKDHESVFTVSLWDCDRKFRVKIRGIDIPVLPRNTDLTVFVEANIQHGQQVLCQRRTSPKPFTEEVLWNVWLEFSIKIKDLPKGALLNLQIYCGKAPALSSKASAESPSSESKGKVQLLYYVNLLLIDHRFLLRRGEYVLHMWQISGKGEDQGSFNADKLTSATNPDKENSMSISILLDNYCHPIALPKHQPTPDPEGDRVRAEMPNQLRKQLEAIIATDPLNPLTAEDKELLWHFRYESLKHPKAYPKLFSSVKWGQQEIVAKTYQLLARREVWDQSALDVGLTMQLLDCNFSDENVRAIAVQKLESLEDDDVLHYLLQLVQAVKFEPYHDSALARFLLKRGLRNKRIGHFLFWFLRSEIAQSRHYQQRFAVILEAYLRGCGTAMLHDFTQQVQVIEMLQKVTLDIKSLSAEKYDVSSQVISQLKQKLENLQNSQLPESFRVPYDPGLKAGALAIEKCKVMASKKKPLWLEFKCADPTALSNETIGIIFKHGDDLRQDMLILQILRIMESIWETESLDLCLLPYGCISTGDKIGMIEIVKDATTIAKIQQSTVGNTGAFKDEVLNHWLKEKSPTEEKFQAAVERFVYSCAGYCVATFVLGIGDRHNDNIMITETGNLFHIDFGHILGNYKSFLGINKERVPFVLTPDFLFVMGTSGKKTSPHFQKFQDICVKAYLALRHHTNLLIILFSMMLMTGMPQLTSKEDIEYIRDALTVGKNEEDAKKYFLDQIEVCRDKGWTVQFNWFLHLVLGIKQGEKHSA
Data set [3] is described as follows: Pharmacokinetic properties in Sprague-Dawley rats after IV and PO administration. Format: in vivo. Conditions: male, plasma, rat; for Vd: read-out: VdSS. As to the method: III. Pharmacokinetic Properties of Compounds in Sprague-Dawley Rats after Intravenous (IV) and Oral Administrations (PO)
Dose Formulation Preparation The injection dosing solution was prepared as follows: 1.0 mg of a test compound was weighted and dissolved in 0.32 mL of dimenthyl acetamide (DMA). The solution was then further diluted by 0.36 mL of ethanol and 0.32 mL of propylene glycol. The final concentration of the test compound was 1.0 mg·mL^−1.
The oral dosing solution was prepared as follows: 5.0 mg of a test compound was weighed and dispersed in […] of 0.5% methyl cellulose (MC). The final concentration of the test compound is 1 mg·mL^−1.
The animals were housed in solid bottom polypropylene cages with sterilized bedding and receive sterilized diet and sterilized water. The room was controlled and monitored for humidity (targeted mean range 40% to 70%) and temperature (targeted mean range 18° C. to 26° C.) with 10 to 20 air changes/hour. The light cycle was maintained at 12-h light and 12-h dark, Only animals that appeared to be healthy were selected for this study based on overall health, body weight, or other relevant information.
The male Sprague-Dawley rats were fasted overnight with free access to drinking water prior to treatment. On day 1, the animals were weighed and actual dose volume for each animal was calculated using the formula below: Dose Volume (mL)=[Nominal Dose (mg·kg^−1)/Dose Concentration (mg·mL^−1)]×Animal Body Weight (kg) (1)
Three rats were given a single IV dose of 1 mg·kg^−1 via tail vein injection and other three rats were given a single oral dose of 5 mg·kg^−1. The dosing solutions were freshly prepared prior to dose administration. The actual body weights and actual volume injected were recorded accordingly. Four hours after dosing, the rats were allowed to intake food.
Blood samples ([…]) were collected at different times from the jugular vein catheter into EDTA-K2 coated tubes, Whole blood was processed by centrifugation at 3000 g for 10 min. Plasma samples were collected and kept at −80° C. freezer prior to analysis. The blood sampling time was recorded accordingly.
The dose samples of IV and PO were diluted with MeOH:H2O (4:1, v/v) to achieve the concentration of 2 μg·mL^−1, respectively. Then, 2.5 μL of the diluted samples were added with 47.5 μL blank plasma, and then were handled as the plasma sample procedure. An aliquot of 10 μL of the mixture was injected into the LC-MS/MS system.

A short description of data set [4]: Brain penetration in male C57BL/6 mice after oral administration. Format: in vivo. Conditions: mouse; for Kp: male, C57BL/6, brain and plasma, PO 10 mg·kg^−1, read-out: BBB (Brain/Plasma Cone. Ratio). As to the method: IV. Brain Penetration of Compounds in Male C57BL/6 Mice after Oral Administration Dose Formulation Preparation
Approximately 4 mg of a test compound was weighed and dispersed in 0.5% methyl cellulose (MC). After that, the whole mixture were vortexed until a solution or suspension was formed. The final concentration of the test compound was 1 mg·mL^−1. The concentration of test compound in dosing formulations was determined within 85% to 115% of nominal values.
The mice were housed in solid bottom polypropylene cages with sterilized bedding. The room was controlled and monitored for humidity (targeted mean range 40% to 70%) and temperature (targeted mean range 20° to 25° C.) with 10 to 20 air changes/hour. The room was on a 12-hour light/dark cycle except when interruptions were necessitated by study activities. The mice were supplied with sterilized diet and water. All animals were examined upon receipt and were acclimated for at least 3 days. Only animals that appeared to be healthy were selected for the study based on overall health, body weight, or other relevant data as appropriate.
All procedures performed on animals were in accordance with established guidelines and reviewed and approved by an independent institutional review board.
The mice were administrated with test compound at 10 mg·kg^−1 via oral gavage, respectively. The dosing formulations were freshly prepared. The actual body weights and actual volume administered were recorded accordingly.
Three mice were sacrificed under carbon dioxide for sample collection at 1, 2 and 4 hours post dose, respectively. Blood samples (˜0.2 mL) were collected via cardiac puncture into anticoagulant tubes (coated with EDTA-Ka). The tubes were gently inverted several times to ensure mixing. Whole blood was processed for plasma by centrifugation at 5,500 rpm for 10 min. The brain was collected immediately after euthanasia. The sample collection time was recorded accordingly. After the removal of excess water, the brain was weighed and homogenized with 5× water (w/v) in an ice bath. […]

[5] abbreviates: read-out: PI3Kδ Enzyme activity IC50.
[6] abbreviates: read-out: PI3Kα Enzyme activity IC50.
Where [7] appears, read: read-out: PI3Kβ Enzyme activity IC50.
[8] abbreviates: read-out: PI3Kγ Enzyme activity IC50.

As to `CC(C)Oc1c(C(C)c2nc(Cl)c3c(N)nccn23)cc(Cl)c(F)c1C1CNC(=O)C1` (single isomer, unassigned) [Compound 48B, 4-(3-(1-(8-amino-1-chloroimidazo[1,5-a]pyrazin-3-yl)ethyl)-5-chloro-6-fluoro-2-isopropoxyphenyl)pyrrolidin-2-one], in data set [1] (PI3Kδ Enzyme activity IC50), the IC50 (usually the point on the concentration scale where inhibition reaches its midpoint) was 0.31 nM. Further, in data set [2] (PI3Kα Enzyme activity IC50), the IC50 was determined as 1300 nM. Also, on PI3K (p110β/p85α) (PI3Kβ Enzyme activity IC50), the IC50 stood at 1200 nM. Further, half-maximal inhibition at PI3K (p110γ) (PI3Kγ Enzyme activity IC50) (IC50) was put at 630 nM. Moreover, in data set [3] (1 mg/kg, IV (1 mpk)), the AUC(0-inf) (in general, the area under the concentration-time curve extrapolated to infinity) is 425 ng·h/mL; the clearance stood at 39.2 mL/min/kg; the half-life (usually how long it takes for the measured level to halve) was 1.4 h; the Vd is 4.3 L/kg. Moreover, in data set [3] (5 mg/kg, PO (5 mpk)), the area under the curve AUC(0-inf) amounted to 1000 ng·h/mL; the Cmax (as a rule, the highest concentration seen after dosing) came out at 254 ng/mL; the Tmax – broadly, the time from dosing to the highest level – is 0.8 h; the bioavailability (commonly dose-corrected exposure relative to a reference, in per cent) stood at 47%. Also, the half-life in data set [3] (5 mg/kg, PO (5 mpk)) was 2.1 h.

Take `CC(C)Oc1c([C@H](C)c2nc(Cl)c3c(N)nccn23)cc(Cl)c(F)c1-c1ccc(C(=O)N(C)C)nc1` [Compound 16A]: the IC50 in data set [1] (PI3Kδ Enzyme activity IC50) was determined as 0.71 nM. In addition, the 50% inhibitory concentration (IC50) in data set [2] (PI3Kα Enzyme activity IC50) was determined as 790 nM. Besides, at PI3K (p110β/p85α) (PI3Kβ Enzyme activity IC50), 870 nM corresponded to half-maximal inhibition (IC50). For the same molecule, at PI3K (p110γ) (PI3Kγ Enzyme activity IC50), the IC50 came to 440 nM. Also, in data set [3] (1 mg/kg, IV (1 mpk)), the AUC(0-inf) stood at 1060 ng·h/mL, the clearance stood at 16 mL/min/kg, the half-life is 1.3 h and the Vd was 1.8 L/kg. In data set [3] (5 mg/kg, PO (5 mpk)), the AUC(0-inf) stood at 2190 ng·h/mL, the Cmax came out at 496 ng/mL, the Tmax was found to be 1 h and the bioavailability turned out to be 41.1%. Also, the half-life in data set [3] (5 mg/kg, PO (5 mpk)) was 1.9 h. In addition, the Kp in data set [4] was 0.05.

Take `CC(C)Oc1c([C@H](C)c2nc(Cl)c3c(N)nccn23)cc(Cl)c(F)c1-c1ccc(C(F)(F)F)nc1` [Compound 40A]: in data set [1] (PI3Kδ Enzyme activity IC50), the IC50 was 1 nM. For the same molecule, in data set [2] (PI3Kα Enzyme activity IC50), the IC50 amounted to 33000 nM. In addition, inhibition against PI3K (p110β/p85α) (PI3Kβ Enzyme activity IC50) was half-maximal at 6800 nM (IC50). The molecule further yielded an IC50 against PI3K (p110γ) (PI3Kγ Enzyme activity IC50) of 3800 nM. Besides, in data set [3] (1 mg/kg, IV (1 mpk)), the AUC(0-inf) was found to be 768 ng·h/mL, the clearance came out at 22.2 mL/min/kg, the half-life is 9 h and the Vd was found to be 14.8 L/kg. Besides, in data set [3] (5 mg/kg, PO (5 mpk)), the AUC(0-inf) turned out to be 1720 ng·h/mL, the peak level (Cmax) was 179 ng/mL, the Tmax was 2.7 h and the bioavailability was 51%. In addition, the half-life in data set [3] (5 mg/kg, PO (5 mpk)) was 6.6 h. Besides, in data set [4], the Kp was 0.29. Also, the “Brain/Plasma Conc. Ratio (in words)” value in data set [4] (PO) is on record as “much better Brain/Plasma Conc, Ratio”.

In the case of `Cc1nc([C@@H](C)c2cc(Cl)c(F)c(-c3ccc(C(=O)N4CC(C(=O)O)C4)nc3)c2OC(C)C)n2ccnc(N)c12` [Compound 65, (S)-1-(5-(3-(1-(8-amino-1-methylimidazo[1,5-a]pyrazin-3-yl)ethyl)-5-chloro-6-fluoro-2-isopropoxyphenyl)picolinoyl)azetidine-3-carboxylic Acid], the IC50 stood at 0.71 nM in data set [1] (setting [5]), 5400 nM in data set [2] (setting [6]), 1200 nM on PI3K (p110β/p85α) (setting [7]) and 1600 nM on PI3K (p110γ) (setting [8]).

Regarding `Cc1nc([C@@H](C)c2cc(Cl)c(F)c(-c3ccc(C(=O)NC4(CO)CC4)nc3)c2OC(C)C)n2ccnc(N)c12` [Compound 66, (S)-5-(3-(1-(8-amino-1-methylimidazo[1,5-a]pyrazin-3-yl)ethyl)-5-chloro-6-fluoro-2-isopropoxyphenyl)-N-(1-(hydroxymethyl)cyclopropyl)picolinamide], the IC50 came to 0.72 nM in data set [1] (setting [5]), 4100 nM in data set [2] (setting [6]), 3400 nM at PI3K (p110β/p85α) (setting [7]) and 2600 nM on PI3K (p110γ) (setting [8]).

For `Cc1nc([C@@H](C)c2cc(Cl)c(F)c(-c3ccc(C(=O)N4CCC[C@H]4C(=O)O)nc3)c2OC(C)C)n2ccnc(N)c12` [Compound 67, (5-(3-((S)-1-(8-amino-1-methylimidazo[1,5-a]pyrazin-3-yl)ethyl)-5-chloro-6-fluoro-2-isopropoxyphenyl)picolinoyl)-L-proline], the IC50 in data set [1] (setting [5]) is 0.47 nM; in data set [2] (setting [6]), 5200 nM; on PI3K (p110β/p85α) (setting [7]), 460 nM; on PI3K (p110γ) (setting [8]), 1200 nM.

Turning to `Cc1nc([C@@H](C)c2cc(Cl)c(F)c(-c3ccc(C(=O)NC4(C(=O)O)CC4)nc3)c2OC(C)C)n2ccnc(N)c12` [Compound 68, (S)-1-(5-(3-(1-(8-amino-1-methylimidazo[1,5-a]pyrazin-3-yl)ethyl)-5-chloro-6-fluoro-2-isopropoxyphenyl)picolinamido)cyclopropane-1-carboxylic Acid], the IC50 in data set [1] (setting [5]) is 0.33 nM; in data set [2] (setting [6]) it was 3400 nM; on PI3K (p110β/p85α) (setting [7]) it was 400 nM; on PI3K (p110γ) (setting [8]), 960 nM.

Consider `Cc1nc([C@@H](C)c2cc(Cl)c(F)c(-c3ccc(C(=O)N4CCC[C@@H]4C(=O)O)nc3)c2OC(C)C)n2ccnc(N)c12` [Compound 69, (5-(3-((S)-1-(8-amino-1-methylimidazo[1,5-a]pyrazin-3-yl)ethyl)-5-chloro-6-fluoro-2-isopropoxyphenyl)picolinoyl)-D-proline], for which the IC50 worked out at 0.71 nM in data set [1] (setting [5]), 7100 nM in data set [2] (setting [6]), 610 nM at PI3K (p110β/p85α) (setting [7]) and 620 nM on PI3K (p110γ) (setting [8]).

As to `Cc1nc([C@@H](C)c2cc(Cl)c(F)c(-c3ccc(C(=O)NC(C)(C)C(=O)O)nc3)c2OC(C)C)n2ccnc(N)c12` [Compound 70, (S)-2-(5-(3-(1-(8-amino-1-methylimidazo[1,5-a]pyrazin-3-yl)ethyl)-5-chloro-6-fluoro-2-isopropoxyphenyl)picolinamido)-2-methylpropanoic Acid], the IC50 amounted to 0.33 nM in data set [1] (setting [5]), 4400 nM in data set [2] (setting [6]), 540 nM on PI3K (p110β/p85α) (setting [7]) and 840 nM at PI3K (p110γ) (setting [8]).

Regarding `Cc1nc([C@@H](C)c2cc(Cl)c(F)c(-c3ccc(C(=O)N4CCC(F)(F)CC4)nc3)c2OC(C)C)n2ccnc(N)c12` [Compound 71], the IC50 in data set [1] (setting [5]) worked out at 0.96 nM; in data set [2] (setting [6]), 4700 nM; on PI3K (p110β/p85α) (setting [7]), 2700 nM; on PI3K (p110γ) (setting [8]) it was 3200 nM.
